The values below come from ChEMBL document CHEMBL3400079 (Bioorg Med Chem, 2015).

One may read the Ki as the equilibrium dissociation constant of an inhibitor or competing ligand from its target.

This experiment concerns the target T1, AGAP002992-PA (Anopheles gambiae, UniProt Q5TU56).
T1 sequence (Q5TU56 whole entry): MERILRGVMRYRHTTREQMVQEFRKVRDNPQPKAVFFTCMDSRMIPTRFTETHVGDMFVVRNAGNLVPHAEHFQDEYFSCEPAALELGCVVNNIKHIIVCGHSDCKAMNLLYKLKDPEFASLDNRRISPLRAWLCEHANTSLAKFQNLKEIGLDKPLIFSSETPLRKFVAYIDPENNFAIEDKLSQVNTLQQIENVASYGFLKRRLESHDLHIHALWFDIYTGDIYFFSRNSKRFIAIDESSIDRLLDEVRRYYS
Description: Inhibition of Anopheles gambiae carbonic anhydrase pre-incubated for 15 mins by stopped-flow CO2 hydration assay

As for `Nc1cc(Cl)c(S(N)(=O)=O)cc1S(N)(=O)=O`, the inhibitory constant (Ki) stood at 756 nM.
Then `NS(=O)(=O)c1nnc(NS(=O)(=O)c2ccccc2)s1` [BENZOLAMIDE], with 9.8 nM; and `NS(=O)(=O)c1cc(Cl)cc(Cl)c1O`, with 6480 nM; and `NS(=O)(=O)c1ccc(CCNS(=O)(=O)c2ccc([N+](=O)[O-])cc2CO)cc1`, with 6.1 nM.
Next, `Nc1cccc(S(N)(=O)=O)c1`: 887 nM.
Then `NCc1ccc(S(N)(=O)=O)cc1` [MAFENIDE], with 13600 nM; and `Nc1ccc(S(N)(=O)=O)cc1F`, with 902 nM; and `Cc1ccc(-c2cc(C(F)(F)F)nn2-c2ccc(S(N)(=O)=O)cc2)cc1` [CELECOXIB], with 173 nM.
For the compound `Cn1nc(S(N)(=O)=O)sc1=N`, the inhibition constant Ki came to 1680 nM.
The compound `Nc1ccc(S(=O)(=O)Nc2nnc(S(N)(=O)=O)s2)cc1` showed a Ki of 6.8 nM. Against the preceding compound, the Ki is about 250-fold lower.
Next, `Nc1ccc(S(=O)(=O)Nc2ccc(S(N)(=O)=O)cc2)cc1`: 83.4 nM; `Nc1ccc(S(=O)(=O)NCc2ccc(S(N)(=O)=O)cc2)cc1`: 81.9 nM.
Next, `Nc1ccc(S(N)(=O)=O)cc1Br`: 855 nM; `NS(=O)(=O)c1ccc(CO)cc1`: over 100000 nM.
Then `Nc1ccc(S(=O)(=O)NCCc2ccc(S(N)(=O)=O)cc2)cc1`, with 47 nM; and `NS(=O)(=O)c1ccc(S(=O)(=O)Nc2cccc3c(Cl)c[nH]c23)cc1`, with 226 nM.
For the compound `NS(=O)(=O)c1ccc(CCO)cc1`, the inhibitory constant (Ki) was over 100000 nM.
Next, `NCCc1ccc(S(N)(=O)=O)cc1`: 835 nM; `Nc1ccc(S(N)(=O)=O)cc1` [SULFANILAMIDE]: 862 nM; `NS(=O)(=O)c1cccc(S(N)(=O)=O)c1`: 843 nM.
The compound `Nc1cc(C(F)(F)F)c(S(N)(=O)=O)cc1S(N)(=O)=O` [2,4-DISULFAMYLTRIFLUOROMETHYLANILINE] showed a Ki of 4360 nM.
Then `CCOc1ccc2nc(S(N)(=O)=O)sc2c1` [ETHOXZOLAMIDE], with 185 nM; and `CCN[C@H]1CN(CCCOC)S(=O)(=O)c2sc(S(N)(=O)=O)cc21` [BRINZOLAMIDE], with 31.4 nM; and `CC1(C)O[C@@H]2[C@@H](CO[C@@]3(COS(N)(=O)=O)OC(C)(C)O[C@@H]23)O1` [TOPIRAMATE], with over 100000 nM.
Next, `O=C1NS(=O)(=O)c2ccccc21` [SACCHARIN]: 95.3 nM.
Then `Nc1ccc(S(N)(=O)=O)cc1Cl`, with 12400 nM.
In turn, `Nc1nnc(S(N)(=O)=O)s1` registered a Ki of 737 nM.
Then `Nc1nccc(Nc2ccc(S(N)(=O)=O)cc2)n1`, with 10600 nM; and `NS(=O)(=O)c1ccc(O)cc1`, with over 100000 nM; and `Cc1ccc(S(N)(=O)=O)cc1` [P-TOLUENESULFONAMIDE], with 12400 nM.
